Assay results as given in patent US11192863B2, “Antiviral compounds and methods” (Biotron Limited, priority 2003, dated 2021).
Several values for one entry are separate records, joined by “and”; a condition that tells them apart may be missing. Equal values may be shown once. Where a name gives a salt, the structure may show the parent alone. Read-outs that look alike come from different tables or passages of the source.

Experiments:
[1] = biological target: Vpu protein (Human immunodeficiency virus type 1 group M subtype B, UniProt P05919); settings: halo of growth score between zero and six; XL1-blue E. coli with pPL-Vpu, no adenine, 37° C.
[2] = biological target: SARS-CoV E protein (Severe acute respiratory syndrome coronavirus, UniProt P59637); format: cell-based
[3] = test system: MHV (strain MHV-A59); settings: L929 cells

Vpu protein, sequence (P05919 whole entry): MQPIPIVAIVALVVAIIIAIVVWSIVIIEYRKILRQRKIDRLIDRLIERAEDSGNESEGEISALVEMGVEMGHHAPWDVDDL
SARS-CoV E protein, sequence (P59637 whole entry, looked up): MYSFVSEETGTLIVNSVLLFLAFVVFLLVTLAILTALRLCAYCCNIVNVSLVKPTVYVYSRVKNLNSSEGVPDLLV

Structure (SMILES) | Vpu Inhibition (score/# of times tested) [1] | SARS E protein Inhibition (score/# of times tested) [2] | Percent reduction in Plaque number/# experiments ([3]; 1 uM) | Percent reduction in Plaque number/# experiments ([3]; 10 uM) | Percent reduction in Plaque number/# experiments ([3]; 20 uM) | Toxic (noted in place of plaque reduction) ([3]; 20 uM)
N=C(N)NC(=O)c1ccc2ccccc2c1Br [1-bromo-2-napthoylguanidine] | 0.06/2 score | 0.25/1 score | 27/1% | 27/2% | 31/1% | 
N=C(N)NC(=O)/C=C/c1c(F)cccc1Cl [2-chloro-6-fluorocinnamoylguanidine] |  | 0.25/1 score | 9/1% | 84/2% | 100/1% | 
N=C(N)NC(=O)/C=C/c1ccc2c(c1)OCO2 [3,4-(methylenedioxy)cinnamoylguanidine] | 1.88/2 score | 1.25/1 score | 45/3% | 82/3% | 93/3% | 
NC(N)=NC(=O)c1nc(Cl)c(N2CCCCCC2)nc1O [3-hydroxy-5-hexamethyleneimino-amiloride] |  |  | 1/1% | 22/2% | 16/1% | 
COc1nc(N2CCCCCC2)c(Cl)nc1C(=O)N=C(N)N [3-methoxy-HMA, 3-methoxy-5-(N,N-Hexamethylene)-amiloride] | 0.2/4 score | 1.25/1 score | 35/1% | 31/1% | 15/1% | 
NC(N)=NC(=O)c1cnc2ccccc2c1 [3-quinolinoylguanidine] |  |  | 30/1% | 36/2% | 27/1% | 
N=C(N)NC(=O)/C=C/C=C/c1ccccc1Br [5-(2′-bromophenyl)penta-2,4-dienoylguanidine] |  |  | 57/1% | 100/1% |  | Toxic
CCN(c1nc(N)c(C(=O)N=C(N)N)nc1Cl)C(C)C [5-(N-Ethyl-N-isopropyl)amiloride, 5-(N-ethyl-N-isopropyl)amiloride] | 0.6/3 score | 1.07/2 score |  |  |  | 
CC(C)CN(C)c1nc(N)c(C(=O)N=C(N)N)nc1Cl [5-(N-Methyl-N-isobutyl)amiloride, 5-(N-methyl-N-isobutyl)amiloride] | 0.8/2 score | 3.13/2 score | 44/2% | 85/1% | 92/1% | 
NC(N)=NC(=O)c1nc(I)c(N)nc1N [6-Iodoamiloride] |  | 1.75/2 score | 0/1% | 21/1% | 28/1% | 
N=C(N)NC(=O)c1ccc2cc(Br)ccc2c1 [6-bromo-2-napthoylguanidine] |  | 0.25/1 score | 19/1% | 43/1% and 37/2% | 65/1% | 
N=C(N)NC(=O)/C=C/c1ccccc1[N+](=O)[O-] [(2-Nitrocinnamoyl)guanidine] | 0.4/2 score |  | 47/1% | 77/2% | 97/1% | 
N=C(N)NC(=O)CCc1ccccc1 [(3-phenylpropanoyl)guanidine] | 0.2/4 score | 0.73/5 score | 0/1% | 03/1% | 51/1% | 
N=C(N)NC(=O)/C=C/c1ccc([N+](=O)[O-])cc1 [(4-Nitrocinnamoyl)guanidine] |  |  | 40/3% | 75/3% | 97/1% | 
N=C(N)NC(=O)Cc1ccccc1 [(Phenylacetyl)guanidine] |  | 0.32/3 score | 3/1% | 22/1% | 35/1% | 
NC(N)=NC(=O)c1ccc2ccccc2n1 [(Quinoline-2-carbonyl)guanidine] |  | 0.41/1 score | 12/1% | 84/1% | 86/1% | 
Cl.NC(N)=NC(=O)c1nc(Cl)c(N)nc1N [Amiloride•HCl, reference compound] |  |  | −5/1% | 18/1% | 21/1% | 

Structure (SMILES) | Vpu Inhibition (score/# of times tested) [1] | SARS E protein Inhibition (score/# of times tested) [2] | Percent reduction in Plaque number/# experiments ([3]; 1 uM) | Percent reduction in Plaque number/# experiments ([3]; 10 uM) | Percent reduction in Plaque number/# experiments ([3]; 20 uM) | Toxic (noted in place of plaque reduction) ([3]; 20 uM)
N/C(=N\C(=O)c1nc(Cl)c(N)nc1N)NCc1ccccc1 [Benzamil hydrochloride, N-Benzyl-N′-(3,5-diamino-6-chloro-pyrzine-2-carbonyl)-guanidine] | 0.9/3 score | 1.32/2 score | 0/1% | 26/1% | 0/1% | 
N=C(N)NC(=O)c1ccccc1 [Benzyoylguanidine, Benzoylguanidine] | 0.88/2 score |  | 14/1% | 39/2% | 22/1% | 
N=C(NC(=O)c1cccc2ccccc12)NC(=O)c1cccc2ccccc12 [N,N′-bis(1-napthoyl)guanidine] |  |  | 35/1% | 52/2% | 58/1% | 
N=C(NC(=O)c1ccc2ccccc2c1)NC(=O)c1ccc2ccccc2c1 [N,N′-bis(2-napthoyl)guanidine] |  |  | 3/1% | 3/2% | 5/1% | 
O=C(/C=C/c1ccccc1)NC(=Nc1ccccc1)NC(=O)/C=C/c1ccccc1 [N,N′-bis-(cinnamoyl)-N″-phenylguanidine] | 0.94/2 score |  | 31/1% | 38/2% | 16/1% | 
N/C(=N/C(=O)c1ccc2ccccc2c1)Nc1ccccc1 [N-(2-napthoyl)-N′-phenylguanidine] |  | 0.07/2 score |  |  |  | 
N=C(NC(=O)/C=C/c1ccccc1)Nc1ccccc1 [N-(cinnamoyl)-N′phenylguanidine, N-(cinnamoyl)-N′-phenylguanidine] | 1.25/3 score | 1.19/2 score | 13/1% | 88/1% | 83/1% | 
N/C(=N\C(=O)/C=C/c1ccccc1)NC(=O)c1ccccc1 [N-Benzoyl-N′-cinnamoylguanidine] | 0.06/2 score | 0.13/2 score | 14/1% | 0/1% | 0/1% | 
CN(C)C(=N)NC(=O)/C=C/c1ccccc1 [N-Cinnamoyl-N′,N′-dimethylguanidine] |  |  | 24/2% | 65/3% | 92/2% | 
NC(N)=NC(=O)c1nc(-c2ccccc2)c(N)nc1N [N-amidino-3,5-diamino-6-phenyl-2-pyrazinecarboxamide] |  |  | 25/1% | 39/2% | 53/1% | 
NC(N)=NC(=O)c1nc(-c2ccccc2)c(N2CCCCCC2)nc1N [N-amidino-3-amino-5-hexamethyleneimino-6-phenyl-2-pyrazinecarboxamide] | 0.6/2 score |  | 48/1% | 52/2% | 84/1% | 
NC(N)=NC(=O)c1nc(Cl)c(-c2ccccc2)nc1N [N-amidino-3-amino-5-phenyl-6-chloro-2-pyrazinecarboxamide] | 0.5/11 score |  | 9/1% | 20/2% | 20/1% | 
O=C(/C=C/c1ccccc1)N=C(Nc1ccccc1)Nc1ccccc1 [N″-Cinnamoyl-N,N′-diphenylguanidine] |  |  | 34/1% | 72/2% | 97/1% | 
N/C(=N\C(=O)c1nc(Cl)c(N)nc1N)Nc1ccccc1 [Phenamil methanesulfonate salt, N-(3,5-Diamino-6-chloro-pyrazine-2-carbonyl)-N′-phenylguanidine] | 0.9/5 score | 0.13/2 score |  |  |  | 
N=C(N)NC(=O)/C=C/c1cccnc1 [[3-(3-Pyridyl)acryloyl]guanidine] |  | 0.67/3 score | 21/2% | 73/2% | 81/2% | 
C/C(=C\c1ccc(N(C)C)cc1)C(=O)NC(=N)N [[(E)-3-(4-Dimethylaminophenyl)-2-methylacryloyl]guanidine] |  |  | 37/1% | 45/1% | 56/1% | 
